Values after ≈ are worked out from the molar mass of the structure shown.
What was measured:
Candida albicans [1] = assay: Antifungal activity against Candida albicans ATCC 10231 assessed as fungal growth inhibition measured after 72 hrs by CLSI protocol based liquid medium dilution method; assay type: functional
Nakaseomyces glabratus = assay: Antifungal activity against Candida glabrata ATCC 0001 assessed as fungal growth inhibition measured after 72 hrs by CLSI protocol based liquid medium dilution method; assay type: functional
Candida tropicalis = assay: Antifungal activity against Candida tropicalis ATCC 1369 assessed as fungal growth inhibition measured after 72 hrs by CLSI protocol based liquid medium dilution method; assay type: functional
Pichia kudriavzevii = assay: Antifungal activity against Candida krusei ATCC 6258 assessed as fungal growth inhibition measured after 72 hrs by CLSI protocol based liquid medium dilution method; assay type: functional
Aspergillus fumigatus = assay: Antifungal activity against Aspergillus fumigatus KM8001 assessed as fungal growth inhibition measured after 72 hrs by CLSI protocol based liquid medium dilution method; assay type: functional
Candida albicans [2] = assay: Antifungal activity against fluconazole resistant Candida albicans strain 904 assessed as fungal growth inhibition measured after 72 hrs by CLSI protocol based liquid medium dilution method; assay type: functional
Candida albicans [3] = assay: Antifungal activity against fluconazole resistant Candida albicans strain CaR assessed as fungal growth inhibition measured after 72 hrs by CLSI protocol based liquid medium dilution method; assay type: functional
Candida albicans [4] = assay: Antifungal activity against fluconazole resistant Candida albicans strain 17# assessed as fungal growth inhibition measured after 72 hrs by CLSI protocol based liquid medium dilution method; assay type: functional
Candida albicans [5] = assay: Antifungal activity against fluconazole resistant Candida albicans strain 103 assessed as fungal growth inhibition measured after 72 hrs by CLSI protocol based liquid medium dilution method; assay type: functional
Candida albicans [6] = assay: Antifungal activity against fluconazole resistant Candida albicans strain 901 assessed as fungal growth inhibition measured after 72 hrs by CLSI protocol based liquid medium dilution method; assay type: functional
Candida albicans [7] = assay: Antifungal activity against Candida albicans assessed as fungal growth inhibition measured after 72 hrs by CLSI protocol based liquid medium dilution method; assay type: functional
Candida albicans [8] = assay: Antifungal activity against Candida albicans ATCC SC5314 assessed as change in lanosterol level at 4 ug/ml incubated for 48 hrs by LC-MS analysis (reference value: 3.7%); assay type: functional; details: dose 4 µg/ml
Candida albicans [9] = assay: Induction of apoptosis in Candida albicans ATCC SC5314 cells assessed as necrotic cells at 8 ug/ml incubated for 72 hrs by Annexin V-FITC/PI staining based flow cytometry method (reference value: 3.76%); assay type: functional; details: dose 8 µg/ml
[10] = target: Lanosterol 14-alpha demethylase (Candida albicans (strain SC5314 / ATCC MYA-2876) (Yeast), UniProt P10613); assay: Inhibition of CYP51 in Candida albicans ATCC SC5314 incubated for 30 mins using eburicol as substrate in presence of NADPH by HPLC analysis
Candida albicans [11] = assay: Induction of apoptosis in Candida albicans ATCC SC5314 cells assessed as late apoptotic cells at 8 ug/ml incubated for 72 hrs by Annexin V-FITC/PI staining based flow cytometry method (reference value: 0.12%); assay type: functional; details: dose 8 µg/ml
Candida albicans [12] = assay: Antifungal activity against Candida albicans ATCC SC5314 assessed as decrease in ergosterol content at 4 ug/ml incubated for 48 hrs by LC-MS analysis (reference value: 90.6%); assay type: functional; design: scale not given: the % may be the effect or the level left; details: dose 4 µg/ml
Candida albicans [13] = assay: Induction of apoptosis in Candida albicans ATCC SC5314 cells assessed as early apoptotic cells at 8 ug/ml incubated for 72 hrs by Annexin V-FITC/PI staining based flow cytometry method (reference value: 0.56%); assay type: functional; details: dose 8 µg/ml
Candida albicans [14] = assay: Antifungal activity against Candida albicans ATCC SC5314 assessed as change in eburicol level at 4 ug/ml incubated for 48 hrs by LC-MS analysis (reference value: 1.4%); assay type: functional; details: dose 4 µg/ml
Candida albicans [15] = assay: Antifungal activity against Candida albicans ATCC SC5314 assessed as change in unknown sterol level at 4 ug/ml incubated for 48 hrs by LC-MS analysis (reference value: 4.3%); assay type: functional; details: dose 4 µg/ml
Candida albicans [16] = assay: Induction of apoptosis in Candida albicans ATCC SC5314 cells assessed as live cells at 8 ug/ml incubated for 72 hrs by Annexin V-FITC/PI staining based flow cytometry method (reference value: 95.56%); assay type: functional; details: dose 8 µg/ml
Candida albicans [17] = assay: Antifungal activity against Candida albicans ATCC SC5314 assessed as change in squalene level at 4 ug/ml incubated for 48 hrs by LC-MS analysis; assay type: functional; details: dose 4 µg/ml

Chain of Lanosterol 14-alpha demethylase (P10613 whole entry): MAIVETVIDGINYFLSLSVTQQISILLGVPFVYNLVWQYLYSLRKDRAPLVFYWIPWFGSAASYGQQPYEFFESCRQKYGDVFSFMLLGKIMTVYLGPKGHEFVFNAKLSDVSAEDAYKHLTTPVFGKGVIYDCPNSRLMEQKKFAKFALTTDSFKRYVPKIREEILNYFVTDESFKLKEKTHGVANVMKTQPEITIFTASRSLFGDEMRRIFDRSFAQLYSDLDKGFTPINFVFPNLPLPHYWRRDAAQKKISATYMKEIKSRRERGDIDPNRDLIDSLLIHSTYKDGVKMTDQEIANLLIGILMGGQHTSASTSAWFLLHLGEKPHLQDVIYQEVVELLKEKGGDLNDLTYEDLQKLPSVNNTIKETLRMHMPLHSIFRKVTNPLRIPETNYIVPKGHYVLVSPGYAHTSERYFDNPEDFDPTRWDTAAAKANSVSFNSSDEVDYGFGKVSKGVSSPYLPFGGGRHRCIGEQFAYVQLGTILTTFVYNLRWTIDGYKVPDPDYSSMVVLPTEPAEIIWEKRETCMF

Work on `CC(C)[C@H](NC(=O)c1cccc2c1OCCO2)C(=O)Nc1cccnc1` yielded an MIC50 (Candida albicans [1]) of 0.5 µg/mL (≈ 1.41 µM), an MIC50 (Nakaseomyces glabratus) of 1 µg/mL (≈ 2.81 µM) and an MIC50 (Candida tropicalis) of 1 µg/mL (≈ 2.81 µM). For the same compound, the MIC50 (Pichia kudriavzevii) was 0.5 µg/mL (≈ 1.41 µM) and the MIC50 (Aspergillus fumigatus) was greater than 8 µg/mL.

`O=C(N[C@@H](Cn1ccnc1)c1ccccc1)c1cccc2c1OCCO2` was tested, and the MIC50 (Candida albicans [1]) was 0.5 µg/mL (≈ 1.43 µM), the MIC50 (Nakaseomyces glabratus) was 0.5 µg/mL (≈ 1.43 µM) and the MIC50 (Candida tropicalis) was 0.5 µg/mL (≈ 1.43 µM). For the same compound, the MIC50 (Pichia kudriavzevii) was 1 µg/mL (≈ 2.86 µM) and the MIC50 (Aspergillus fumigatus) was greater than 8 µg/mL.

Work on `CCC(C)[C@H](NC(=O)c1ccc2c(c1)OCCO2)C(=O)N[C@@H](Cn1ccnc1)c1ccccc1` (some centres not stated) yielded an MIC50 (Candida albicans [1]) of 0.125 µg/mL (≈ 0.27 µM), an MIC50 (Nakaseomyces glabratus) of 0.125 µg/mL (≈ 0.27 µM) and an MIC50 (Candida albicans [2]) of 4 µg/mL (≈ 8.65 µM). The MIC50 (Candida albicans [3]) was 2 µg/mL (≈ 4.32 µM), the MIC50 (Candida tropicalis) was 0.5 µg/mL (≈ 1.08 µM) and the MIC50 (Candida albicans [4]) was 2 µg/mL (≈ 4.32 µM). It also gave an MIC50 (Candida albicans [5]) of 1 µg/mL (≈ 2.16 µM), an MIC50 (Candida albicans [6]) of 2 µg/mL (≈ 4.32 µM) and an MIC50 (Pichia kudriavzevii) of 0.25 µg/mL (≈ 0.54 µM). The MIC50 (Aspergillus fumigatus) was 2 µg/mL (≈ 4.32 µM).

For `CCC(C)[C@H](NC(=O)c1cccc2c1OCCO2)C(=O)Nc1cccnc1` (some centres not stated), the MIC50 (Candida albicans [1]) was 0.5 µg/mL (≈ 1.35 µM), the MIC50 (Nakaseomyces glabratus) was 1 µg/mL (≈ 2.71 µM) and the MIC50 (Candida tropicalis) was 0.5 µg/mL (≈ 1.35 µM). It also gave an MIC50 (Pichia kudriavzevii) of 2 µg/mL (≈ 5.41 µM) and an MIC50 (Aspergillus fumigatus) greater than 8 µg/mL.

Compound `CCC(C)[C@H](NC(=O)c1cccc2c1OCCO2)C(=O)N[C@@H](Cn1ccnc1)c1ccccc1` (some centres not stated) has an MIC50 (Candida albicans [1]) of 0.5 µg/mL (≈ 1.08 µM), an MIC50 (Nakaseomyces glabratus) of 0.25 µg/mL (≈ 0.54 µM) and an MIC50 (Candida tropicalis) of 0.25 µg/mL (≈ 0.54 µM). For the same compound, the MIC50 (Pichia kudriavzevii) was 0.5 µg/mL (≈ 1.08 µM) and the MIC50 (Aspergillus fumigatus) was greater than 8 µg/mL.

`O=C(N[C@H](Cc1ccccc1)Cn1ccnc1)c1cccc2c1OCCO2` was tested, and the MIC50 (Candida albicans [1]) was 0.5 µg/mL (≈ 1.38 µM), the MIC50 (Nakaseomyces glabratus) was 0.25 µg/mL (≈ 0.688 µM) and the MIC50 (Candida tropicalis) was 0.25 µg/mL (≈ 0.688 µM). It also gave an MIC50 (Candida albicans [7]) of 0.5 µg/mL (≈ 1.38 µM), an MIC50 (Pichia kudriavzevii) of 0.5 µg/mL (≈ 1.38 µM) and an MIC50 (Aspergillus fumigatus) greater than 8 µg/mL.

For `CC(C)[C@H](NC(=O)c1ccc2c(c1)OCCO2)C(=O)Nc1ccncc1`, the MIC50 (Candida albicans [1]) was 0.5 µg/mL (≈ 1.41 µM), the MIC50 (Nakaseomyces glabratus) was 0.5 µg/mL (≈ 1.41 µM) and the MIC50 (Candida tropicalis) was 0.5 µg/mL (≈ 1.41 µM). The MIC50 (Pichia kudriavzevii) was 0.25 µg/mL (≈ 0.703 µM) and the MIC50 (Aspergillus fumigatus) was greater than 8 µg/mL.

`CCC(C)[C@H](NC(=O)c1ccc2c(c1)OCCO2)C(=O)Nc1cccnc1` (some centres not stated) was tested, and the MIC50 (Candida albicans [1]) was 0.5 µg/mL (≈ 1.35 µM), the MIC50 (Nakaseomyces glabratus) was 1 µg/mL (≈ 2.71 µM) and the MIC50 (Candida tropicalis) was 2 µg/mL (≈ 5.41 µM). For the same compound, the MIC50 (Pichia kudriavzevii) was 1 µg/mL (≈ 2.71 µM) and the MIC50 (Aspergillus fumigatus) was 4 µg/mL (≈ 10.8 µM).

In the case of `CC(C)[C@H](NC(=O)c1ccc2c(c1)OCCO2)C(=O)Nc1cccnc1`, the MIC50 (Candida albicans [1]) is reported as 0.25 µg/mL (≈ 0.703 µM), the MIC50 (Nakaseomyces glabratus) is reported as 1 µg/mL (≈ 2.81 µM) and the MIC50 (Candida tropicalis) is reported as 1 µg/mL (≈ 2.81 µM). The MIC50 (Pichia kudriavzevii) was 0.5 µg/mL (≈ 1.41 µM) and the MIC50 (Aspergillus fumigatus) was greater than 8 µg/mL.

`OC(Cn1cncn1)(Cn1cncn1)c1ccc(F)cc1F` [FLUCONAZOLE] gave an MIC50 (Candida albicans [1]) of 0.25 µg/mL (≈ 0.816 µM), an MIC50 (Nakaseomyces glabratus) of 0.25 µg/mL (≈ 0.816 µM) and an Activity (Candida albicans [8]) of 21.6%. The Activity (Candida albicans [9]) was 18.59%, the MIC50 (Candida albicans [2]) was greater than 8 µg/mL and the MIC50 (Candida albicans [3]) was greater than 8 µg/mL. The MIC50 (Candida tropicalis) was 0.5 µg/mL (≈ 1.63 µM), the MIC50 (Candida albicans [4]) was greater than 8 µg/mL and the IC50 [10] was 148 nM. For the same compound, the MIC50 (Candida albicans [5]) was greater than 8 µg/mL, the Activity (Candida albicans [11]) was 3.02% and the MIC50 (Candida albicans [6]) was greater than 8 µg/mL. The Activity (Candida albicans [12]) was 29.5%, the Activity (Candida albicans [13]) was 1.83% and the Activity (Candida albicans [14]) was 40.6%. It also gave an MIC50 (Pichia kudriavzevii) of 0.5 µg/mL (≈ 1.63 µM), an Activity (Candida albicans [15]) of 5.6% and an Activity (Candida albicans [16]) of 76.56%. The Activity (Candida albicans [17]) was 2.7% and the MIC50 (Aspergillus fumigatus) was greater than 8 µg/mL.

Work on `CC(C)[C@H](NC(=O)c1cccc2c1OCCO2)C(=O)Nc1ccncc1` yielded an MIC50 (Candida albicans [1]) of 0.5 µg/mL (≈ 1.41 µM), an MIC50 (Nakaseomyces glabratus) of 0.5 µg/mL (≈ 1.41 µM) and an MIC50 (Candida tropicalis) of 0.5 µg/mL (≈ 1.41 µM). For the same compound, the MIC50 (Candida albicans [7]) was 0.5 µg/mL (≈ 1.41 µM), the MIC50 (Pichia kudriavzevii) was 1 µg/mL (≈ 2.81 µM) and the MIC50 (Aspergillus fumigatus) was 4 µg/mL (≈ 11.3 µM).

For `CC(C)[C@H](NC(=O)c1ccc2c(c1)OCCO2)C(=O)N[C@@H](Cn1ccnc1)c1ccccc1`, the MIC50 (Candida albicans [1]) was 0.25 µg/mL (≈ 0.557 µM), the MIC50 (Nakaseomyces glabratus) was 0.25 µg/mL (≈ 0.557 µM) and the MIC50 (Candida tropicalis) was 0.125 µg/mL (≈ 0.279 µM). For the same compound, the MIC50 (Pichia kudriavzevii) was 0.5 µg/mL (≈ 1.11 µM) and the MIC50 (Aspergillus fumigatus) was 4 µg/mL (≈ 8.92 µM).

Compound `O=C(N[C@@H](Cn1cncn1)c1ccccc1)c1cccc2c1OCCO2` has an MIC50 (Candida albicans [1]) of 0.125 µg/mL (≈ 0.357 µM), an MIC50 (Nakaseomyces glabratus) of 1 µg/mL (≈ 2.85 µM) and an MIC50 (Candida tropicalis) of 0.5 µg/mL (≈ 1.43 µM). For the same compound, the MIC50 (Pichia kudriavzevii) was 0.25 µg/mL (≈ 0.714 µM) and the MIC50 (Aspergillus fumigatus) was greater than 8 µg/mL.

Source: ChEMBL document CHEMBL5143523, “Construction and activity evaluation of novel benzodioxane derivatives as dual-target antifungal inhibitors” (Eur J Med Chem, 2022)
